For 14 compounds, EC50 results are on record in patent US8729110B1, “2-thio-1,3,4-oxadiazoles derivatives as sphingosine-1 phosphate receptors modulators” (Allergan, Inc., priority 2012, dated 2014).

A word on the EC50: it is the concentration needed to bring the measured effect to its halfway point. The low end stands for higher potency in that assay, the high end for lower potency in that assay.

The target in the test is T1, human S1P1 receptor (Homo sapiens, UniProt P21453).
T1 construct: expressed in transfected cells; membranes used
T1 sequence (P21453 whole entry): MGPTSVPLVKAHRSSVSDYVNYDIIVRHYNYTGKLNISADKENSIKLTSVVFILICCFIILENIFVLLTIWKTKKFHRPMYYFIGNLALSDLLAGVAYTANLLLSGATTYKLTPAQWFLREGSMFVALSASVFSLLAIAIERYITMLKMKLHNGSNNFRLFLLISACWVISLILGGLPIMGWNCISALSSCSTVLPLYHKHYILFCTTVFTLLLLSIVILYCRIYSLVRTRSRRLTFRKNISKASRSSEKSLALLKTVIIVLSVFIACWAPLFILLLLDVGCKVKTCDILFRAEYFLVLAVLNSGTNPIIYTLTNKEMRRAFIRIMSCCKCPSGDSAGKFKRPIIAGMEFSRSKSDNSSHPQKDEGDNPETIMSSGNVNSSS
In words: GTP γ35S binding assay for S1P1 activity. Conditions: activity potency, S1P1 receptor from GTP γ35S binding; 5 μg membrane protein; test compounds 0.08 to 5,000 nM; 30 min at 25° C. The format is biochemical. The protocol: Compounds were synthesized and tested for S1P1 activity using the GTP γ^35S binding assay. These compounds may be assessed for their ability to activate or block activation of the human S1P1 receptor in cells stably expressing the S1P1 receptor.
GTP γ^35S binding was measured in the medium containing (mM) HEPES 25, pH 7.4, MgCl2 10, NaCl 100, dithitothreitol 0.5, digitonin 0.003%, 0.2 nM GTP γ^35S, and 5 μg membrane protein in a volume of 150 μl. Test compounds were included in the concentration range from 0.08 to 5,000 nM unless indicated otherwise. Membranes were incubated with 100 μM 5′-adenylylimmidodiphosphate for 30 min, and subsequently with 10 μM GDP for 10 min on ice. Drug solutions and membrane were mixed, and then reactions were initiated by adding GTP γ^35S and continued for 30 min at 25° C. Reaction mixtures were filtered over Whatman GF/B filters under vacuum, and washed three times with 3 mL of ice-cold buffer (HEPES 25, pH7.4, MgCl2 10 and NaCl 100). Filters were dried and mixed with scintillant, and counted for ^35S activity using a β-counter. Agonist-induced GTP γ^35S binding was obtained by subtracting that in the absence of agonist. Binding data were analyzed using a non-linear regression method. In case of antagonist assay, the reaction mixture contained 10 nM […] in the presence of test antagonist at concentrations ranging from 0.08 to 5000 nM.
The compound `Cc1ccc(-c2nnc(SC(C)c3ccc(CNCCCP(=O)(O)O)cc3)o2)cc1C` (centres unmarked) [(3-{[4-(1-{[5-(3,4-dimethylphenyl)-1,3,4-oxadiazol-2-yl]thio}ethyl)benzyl]amino}propyl)phosphonic acid] registered a half-maximal effective concentration (EC50) of 888 nM. That is a sub-micromolar value. Under `Cc1ccc(-c2nnc(SCc3ccc(CNCCCP(=O)(O)O)cc3)o2)cc1C` [(3-{[4-({[5-(3,4-dimethylphenyl)-1,3,4-oxadiazol-2-yl]thio}methyl)benzyl]amino}propyl)phosphonic acid] stands 805 nM; under `O=P(O)(O)CCCNCc1ccc(-c2nnc(SCc3cccc(Cl)c3F)o2)cc1` [Compound 1, {3-[(4-{5-[(3-chloro-2-fluorobenzyl)thio]-1,3,4-oxadiazol-2-yl}benzyl)amino]propyl}phosphonic acid], 853 nM. With `Cc1cc(CNCCCP(=O)(O)O)ccc1-c1nnc(SC(C)c2cccc([N+](=O)[O-])c2)o1` (centres unmarked) [Compound 6, (3-{[3-methyl-4-(5-{[1-(3-nitrophenyl)ethyl]thio}-1,3,4-oxadiazol-2-yl)benzyl]amino}propyl)phosphonic acid] the figure was 231 nM. Under `CCC(Sc1nnc(-c2ccc(CNCCCP(=O)(O)O)cc2C)o1)c1cccc([N+](=O)[O-])c1` (centres unmarked) [Compound 7, (3-{[3-methyl-4-(5-{[1-(3-nitrophenyl)propyl]thio}-1,3,4-oxadiazol-2-yl)benzyl]amino}propyl)phosphonic acid] stands 50 nM; under `O=[N+]([O-])c1cccc(CSc2nnc(-c3ccc(CNCCCP(=O)(O)O)cc3)o2)c1` [Compound 9, {3-[(4-{5-[(3-nitrobenzyl)thio]-1,3,4-oxadiazol-2-yl}benzyl)amino]propyl}phosphonic acid], 1810 nM; under `Cc1ccc(CSc2nnc(-c3ccc(CNCCCP(=O)(O)O)cc3)o2)cc1C` [Compound 10, {3-[(4-{5-[(3,4-dimethylbenzyl)thio]-1,3,4-oxadiazol-2-yl}benzyl)amino]propyl}phosphonic acid], 97 nM. The compound `CCc1cc(CNCCCP(=O)(O)O)ccc1-c1nnc(SC(C)c2cccc([N+](=O)[O-])c2)o1` (centres unmarked) [Compound 11, (3-{[3-ethyl-4-(5-{[1-(3-nitrophenyl)ethyl]thio}-1,3,4-oxadiazol-2-yl)benzyl]amino}propyl)phosphonic acid] yielded a half-maximal effective concentration (EC50) of 30 nM. As to `CCCC(Sc1nnc(-c2ccc(CNCCCP(=O)(O)O)cc2)o1)c1ccccc1` (centres unmarked) [Compound 14, {3-[(4-{5-[(1-phenylbutyl)thio]-1,3,4-oxadiazol-2-yl}benzyl)amino]propyl}phosphonic acid], the concentration for a half-maximal effect (EC50) was found to be 1.5 nM. Compared with the last compound, the EC50 is about 20-fold lower. Compound `CCCC(Sc1nnc(-c2ccc(CNCCCP(=O)(O)O)cc2)o1)c1cccc(Cl)c1F` (centres unmarked) [Compound 15, (3-{[4-(5-{[1-(3-chloro-2-fluorophenyl)butyl]thio}-1,3,4-oxadiazol-2-yl)benzyl]amino}propyl)phosphonic acid] gave an EC50 of 1.8 nM.

In the case of `CCC(Sc1nnc(-c2ccc(CNCCCP(=O)(O)O)cc2)o1)c1cccc([N+](=O)[O-])c1` (centres unmarked) [Compound 16, (3-{[4-(5-{[1-(3-nitrophenyl)propyl]thio}-1,3,4-oxadiazol-2-yl)benzyl]amino}propyl)phosphonic acid], it took 40 nM to reach a half-maximal effect (EC50).

Compound `CC(Sc1nnc(-c2ccc(CNCCCP(=O)(O)O)cc2)o1)c1cccc([N+](=O)[O-])c1` (centres unmarked) [Compound 17, (3-{[4-(5-{[1-(3-nitrophenyl)ethyl]thio}-1,3,4-oxadiazol-2-yl)benzyl]amino}propyl)phosphonic acid] yielded an EC50 of 382 nM. Against the preceding compound, the EC50 is about 9.6-fold higher. `CCc1cc(CNCCCP(=O)(O)O)sc1-c1nnc(SC(C)c2cccc([N+](=O)[O-])c2)o1` (centres unmarked) [Compound 26, [3-({[4-ethyl-5-(5-{[1-(3-nitrophenyl)ethyl]sulfanyl}-1,3,4-oxadiazol-2-yl)thiophen-2-yl]methyl}amino)propyl]phosphonic acid] came in with a concentration for a half-maximal effect (EC50) of 1260 nM. On to `Cc1cc(CNCCCP(=O)(O)O)sc1-c1nnc(SC(C)c2cccc([N+](=O)[O-])c2)o1` (centres unmarked) [Compound 27, [3-({[4-methyl-5-(5-{[1-(3-nitrophenyl)ethyl]sulfanyl}-1,3,4-oxadiazol-2-yl)thiophen-2-yl]methyl}amino)propyl]phosphonic acid], for which the EC50 came out at 200 nM.
